Assay results as given in PMC12501029, “Discovery of a CNS active GSK3 degrader using orthogonally reactive linker screening” (Nature Communications, 2025).
One block for each compound: values may come before it.

Legend:
[1] = Intrinsic clearance (Cli), mouse liver microsomes; type: in vitro ADME; settings: 0.5 µM, scaling factor 48 mg microsomal protein per g liver
Protocol: (§1) Test compound (0.5 µM) was incubated with female CD1 mouse, male rat Han Wistar and pooled human liver microsomes (Xenotech^TM; 0.5 mg/mL 50 mM potassium phosphate buffer, pH7.4) and the reaction started with addition of excess NADPH (8 mg/mL 50 mM potassium phosphate buffer, pH7.4). Immediately, at time zero, then at 3, 6, 9, 15 and 30 min an aliquot (50 µL) of the incubation mixture was removed and mixed with acetonitrile (100 uL) to stop the reaction. An internal standard was added to all samples, the samples centrifuged to sediment precipitated protein and the plates then sealed prior to UPLC-MSMS analysis (Xevo TQ-S Micro, Waters^TM). XLfit (IDBS, UK) was used to calculate the exponential decay and consequently the rate constant (k) from the ratio of peak area of test compound to internal standard at each timepoint. The rate of intrinsic clearance (CLi) of each test compound was then calculated using the following calculation:1 CLi(mL/min/gliver)=kxVxMicrosomalproteinyield Where V (mL/mg protein) is the incubation volume/mg protein added and microsomal protein yield is taken as 48 mg, 46 mg and 40 mg protein/g liver for mouse, rat and human, respectively. Verapamil (0.5 µM) was used as a positive control to confirm acceptable assay performance.

[2] = Intrinsic clearance (Cli), human liver microsomes; type: in vitro ADME; settings: 0.5 µM, scaling factor 40 mg microsomal protein per g liver
Protocol: as §1

[3] = Intrinsic clearance (Cli), rat liver microsomes; type: in vitro ADME; settings: 0.5 µM, scaling factor 46 mg microsomal protein per g liver
Protocol: as §1

[4] = molecular target: T1, GSK3β-HiBiT (GSK3β-HiBiT KI HEK293 cells) (Homo sapiens, UniProt P49841); experiment: HiBiT lytic degradation assay / high-throughput screen, 24 h; type: cell-based; settings: 24 h treatment
T1 construct: we generated endogenously tagged GSK3β-HiBiT knock-in (KI) HEK293 cells; endogenous in cells; host or cells: GSK3β-HiBiT knock-in HEK293 cells (CRISPR/Cas9, single-cell clone)
T1 sequence (P49841 whole entry): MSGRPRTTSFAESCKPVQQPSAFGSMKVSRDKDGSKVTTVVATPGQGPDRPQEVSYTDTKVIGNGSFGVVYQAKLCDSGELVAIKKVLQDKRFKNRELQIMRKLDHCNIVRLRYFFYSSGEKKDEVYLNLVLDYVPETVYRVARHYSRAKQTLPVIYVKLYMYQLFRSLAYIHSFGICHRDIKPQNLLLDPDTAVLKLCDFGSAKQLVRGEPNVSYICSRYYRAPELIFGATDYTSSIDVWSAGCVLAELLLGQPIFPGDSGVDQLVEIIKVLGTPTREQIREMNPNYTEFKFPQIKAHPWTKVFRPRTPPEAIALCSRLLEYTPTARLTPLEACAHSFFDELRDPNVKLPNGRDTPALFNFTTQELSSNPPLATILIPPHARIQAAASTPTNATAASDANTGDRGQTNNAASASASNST
Protocol: Crude compounds were assumed to be 10 mM concentration in DMSO and after generating libraries directly used in biological tests in degradation screens. Stock solutions were serially diluted into white bottom opaque 384-well plates (Perkin Elmer) using Echo500 (Labcyte) and DMSO was backfilled to maintain same DMSO content in each well for all concentrations. […] HiBiT lytic assay buffer (Promega) prepared according to the manufacturer’s instructions and added onto each well using Multidrop^TM Combi reagent dispenser. Luminescence signal was measured on PheraStar plate reader (BMG) and obtained data normalised to DMSO conditions using Excel and further analysed using GraphPad Prism (v10.1.2) and degradation curves were generated using 4-parameter non-linear regression fit to calculate DC50 and Dmax values. Data points associated with concentrations displaying a hook effect were excluded prior to DC50 and Dmax calculation.

[5] = test system: GSK3β Ser9 and GSK3β Tyr216 phosphorylation; experiment: GSK3β phosphorylation (Ser9, Tyr216) immunoblot in HEK293 cells; type: cell-based, human; settings: for impact on GSK3β Ser9 or GSK3β Tyr216 phosphorylation prior to degradation: 10 nM 24, 27, 10 nM and 1 µM 29, 30 min
Protocol: HEK293, HAP1, HAP1 CRBN KO and SH-SY5Y cells were plated in either 6 cm plates or 6-well plates at varying densities (0.5–0.7 × 10^6 cells per plate or wells), and MEF cells were plated in 10 cm plates (1–1.2 × 10^6 cells per plate) depending on experimental set up in respective culturing condition as described above. Stock solutions of compounds were prepared as 10 mM in DMSO (Sigma–Aldrich). Working dilutions were made up fresh in DMSO and culturing media or differentiation media was refreshed prior to any compound treatments. For mode of action studies, cells were pre-treated with inhibitors for 2 h: 1 µM MG132 (Merck, 474790-5 mg), 1 µM MLN4924 (Merck, 5054770001) or 1 µM GSK3 inhibitor (compound 29), before treating with PROTACs for 2, 4 or 24 h as indicated in figure legends. Cells were washed twice with ice-cold PBS (Gibco), harvested in PBS and pelleted, cells were resuspended in RIPA buffer supplemented with complete EDTA-free protease inhibitor cocktail (Roche,11873580001, 1/10 mL) and phosSTOP (Roche, 04906845001, 1 tablet/10 mL) for 20 min lysis on ice then cleared via centrifugation at 16,000 × g, 4 °C for 20 min. SH-SY5Y cells were lysed in 500 µL ice-cold lysis buffer (25 mM Tris-HCl (pH 7.4), 50 mM NaF, 100 mM NaCl, 1 mM EDTA, 4 mM EGTA, 1% (v/v) Triton-X-100, 0.09% (w/v) sucrose, 10 mM sodium pyrophosphate, 10 mM sodium vanodate, 0.1% (v/v) β-mercaptoethanol, supplemented with complete mini protease inhibitor tablet (Sigma; 1 tablet/ 10 mL buffer)). Lysates were flash frozen, thawed and centrifugated at 16,000 × g, 4 °C for 20 min. Following clearance of lysates, protein concentrations were determined by the BCA assay (Fisher Scientific, 23225) or Bradford assay (Bio-rad). Five to thirty micrograms of protein from lysates were prepared in 4×LDS buffer (Thermo Fisher) and 50 mM dithiothreitol (DTT) denaturated at 95 °C for 5 min. Proteins were separated on NuPAGE 4–12% Bis-Tris gels (Invitrogen) or 4–12% Novex Tris-glycine gels (Invitrogen) in MOPS buffer (Invitrogen) and transferred onto nitrocellulose membranes using an iBlot3 system (Thermo Fisher Scientific) or nitrocellulose membranes (Cytiva) in cold tris-glycine-methanol buffer (25 mM Tris (pH 7.5), 192 mM glycine, 20% (v/v) methanol). Membranes were blocked with either 5% fat-free milk (Marvel) or 1% (w/v) BSA (Sigma) in TBS-T (20 mM Tris (pH 7.5), 150 mM NaCl, 0.1% (v/v) Tween-20 (Sigma)) at room temperature for 30 min, or in the case of SH-SY5Y assays, 1 h, before incubating with primary antibodies overnight at 4 °C on a rocker. […]

[6] = test system: HEK293 cells phosphoproteome; experiment: Phosphoproteomics in HEK293 cells; type: cell-based, human; design: scale not given here; settings: phosphosite abundance difference
Protocol: IMAC beads were prepared from Ni-NTA (nitrilotriacetic acid) superflow agarose beads. The nickel was stripped with 100 mM EDTA and incubated in an aqueous solution of 10 mM iron (III) chloride (FeCl3). Dried peptide fractions were reconstituted to a concentration of 0.5 μg/μL in 80% ACN/0.1% TFA. Peptide mixtures were enriched for phosphorylated peptides with 5 μL IMAC beads for 30 min with end-to-end rotation.
Enriched IMAC beads were loaded on Empore C18 silica-packed stage tips. Stage tips were equilibrated with acetonitrile followed by 50% ACN/0.1% FA then 1% FA. The beads with enriched peptides were loaded onto C18 stage tips and washed with 80% ACN/0.1% TFA. Phosphorylated peptides were eluted from IMAC beads with 500 mM dibasic sodium phosphate, pH 7.0. These peptides were washed with 1% FA before elution using 50% acetonitrile in 0.1% FA. The peptides were then dried by SpeedVac and stored at −20 °C until mass spectrometry analysis. The dried phosphopeptides were reconstituted in 0.1% formic acid and analyzed on an Orbitrap Ascend mass spectrometer coupled to a Thermo Fisher Scientific Vanquish Neo UHPLC. […] The total run time was set to 155 min. A survey full scan MS (from m/z 350–1500) was acquired in the Orbitrap at a resolution of 120,000 at 200 m/z. The most intense ions with charge state ≥2 were isolated and fragmented using higher collision dissociation (HCD) fragmentation, with 30% normalised collision energy, and detected at a mass resolution of 50,000 at 200 m/z. The isolation window was set at 1.6. The phosphoproteomics raw data were searched using SEQUEST HT search engines with Proteome Discoverer 3.0 (Thermo Fisher Scientific). The following parameters were used for searches: Precursor mass tolerance 10 ppm, fragment mass tolerance 0.02, enzyme: trypsin, […], fixed modification: carbamidomethylation of cysteine residues and TMT of lysine and N-terminal, dynamic modification: oxidation of methionine and phosphorylation of serine, threonine and tyrosine. The data were filtered for 1% PSM and peptide level. A two-tailed t-test with 250 randomisations was performed in Perseus software (v1.6.15.0) to assess statistical significance between groups. The resulting data were visualised as a volcano plot using GraphPad Prism (v10.1.2).

Scaled Microsomal Stability MuClint [1]: 15 ml/min/g liver
Scaled Microsomal Stability HuClint [2]: 27 ml/min/g liver
Scaled Microsomal Stability RatClint [3]: 2.6 ml/min/g liver
SMILES: O=C1CCC(NC(=O)c2ccc(CN3CCN(CCCCCc4cn(-c5ccc(-c6cn7nccc(C(=O)Nc8cnccc8N8CCOCC8)c7n6)cc5)nn4)CC3)cc2F)C(=O)N1 (centres unmarked) [compound 21]

Dmax ([4]; HEK293, crude mixture, stock assumed 10 mM): 81%
Dmax ([4]; HEK293, pure (resynthesised, HPLC purified) compound): 73%
SMILES: O=C1CCC(NC(=O)c2ccc(CN3CCN(CCCc4cn(-c5ccc(-c6cn7nccc(C(=O)Nc8cnccc8N8CCOCC8)c7n6)cc5)nn4)CC3)cn2)C(=O)N1 (centres unmarked) [compound 23]

SMILES: CN1C(=O)CCN(c2nn(C)c3cc(CN4CCN(Cc5ccc(-c6cn(-c7ccc(-c8cn9nccc(C(=O)Nc%10cnccc%10N%10CCOCC%10)c9n8)cc7)nn6)nc5)CC4)ccc23)C1=O [compound 27]
impact on GSK3β Ser9 or GSK3β Tyr216 phosphorylation prior to degradation [5]: no impact observed
Difference, E2F8 A0AVK6 1xPhospho [S68(99.5)] ([6]; 27 vs DMSO, MOESM7): -0.2137
Difference, E2F8 A0AVK6 1xPhospho [S417(100)] ([6]; 27 vs DMSO, MOESM7): 0.1148
Difference, GATD3B A0A0B4J2D5 1xPhospho [S98(100)] ([6]; 27 vs DMSO, MOESM7): 0.02358
Difference, SIK1B A0A0B4J2F2 1xPhospho [S575(100)] ([6]; 27 vs DMSO, MOESM7): 0.09328
Difference, UBA6 A0AVT1 1xPhospho [S36(100)] ([6]; 27 vs DMSO, MOESM7): 0.2252
Difference, A0JNW5 1xPhospho [S414(100)] UHRF1BP1L ([6]; 27 vs DMSO, MOESM8): 0.1475
Difference, A0JNW5 1xPhospho [S953(99.7)] UHRF1BP1L ([6]; 27 vs DMSO, MOESM8): -0.0085
Difference, A0MZ66 1xPhospho [S506(100)] SHTN1 ([6]; 27 vs DMSO, MOESM8): 0.1099
Difference, A0MZ66 1xPhospho [S512(100)] SHTN1 ([6]; 27 vs DMSO, MOESM8): 0.06022
Difference, A0MZ66 1xPhospho [T537(100)] SHTN1 ([6]; 27 vs DMSO, MOESM8): -0.2879
Difference, Q5PRF9 1xPhospho [S592(100)] SAMD4B ([6]; vs DMSO, MOESM9): 0.05893
Difference, Q8NEM7 1xPhospho [S437(100)] SUPT20H ([6]; vs DMSO, MOESM9): 0.2274
Difference, Q96KQ7 1xPhospho [S140(100)] EHMT2 ([6]; vs DMSO, MOESM9): 0.333
Difference, Q15398 1xPhospho [S725(100)] DLGAP5 ([6]; vs DMSO, MOESM9): 0.1236
Difference, Q15911 1xPhospho [S426(100)] ZFHX3 ([6]; vs DMSO, MOESM9): 0.1806

SMILES: O=C(Nc1cnccc1N1CCOCC1)c1ccnn2cc(-c3ccc(Br)cc3)nc12 [compound 29]
impact on GSK3β Ser9 or GSK3β Tyr216 phosphorylation prior to degradation [5]: no impact observed
phosphorylation of Tyr216 after 2 h ([5]; 1 µM, 2 h): some reduction in phosphorylation of Tyr216
